Measured values published in US7601494B2, “Method of screening candidate compounds for susceptibility to biliary excretion” (The University of North Carolina at Chapel Hill, priority 1999, dated 2009).

Key:
Mrp2 = assay: Immunoblot analysis of Mrp2 expression in siRNA-treated SCRH; type: cell-based, rat; settings: vs siFL-transfected and non-transfected cells
Description: (§1) HepG2 cells were maintained in Dulbecco's modified Eagle's medium/F-12 plus 10% FBS. Rat hepatocytes were isolated from male Wistar rats (220-300g) by in situ collagenase perfusion (Annaert et al., Drug Metab Dispos 29:1277-1283, 2001). Cells were seeded at a density of 1.5×10^6 cells per well onto polystyrene 6-well plates pre-coated with rat tail type I collagen; a top layer of gelled collagen was overlaid 24 hr after plating. Rat hepatocyte cultures were maintained in Dulbecco's modified Eagle's medium supplemented with 0.1 μM dexamethasone and 0.1% ITS culture supplement (6.25 mg/mL insulin, 6.25 mg/mL transferrin, 6.25 μg/mL selenous acid, 5.35 mg/mL linoleic acid, and […]). Medium was changed every 24 hr.
(§2) HepG2 cells were seeded at a density of 2×10^5 cells per well onto 12-well plates 24 hr before transfection. A mixture of 100 ng firefly luciferase expression plasmid (PGL3-FL) and 100 ng Renilla luciferase expression plasmid (PRL-TK) and various amounts of firefly luciferase siRNA were used per well. Transfections of SCRH were performed at 20 hr after plating, unless specifically indicated. siRNA (2 μg unless specified) was used per well in 6-well plates. siRNA and DNA were formulated for transfection using […]™ transfection reaction kit (QIAGEN Inc. Valencia, Calif. USA). Briefly, siRNA was condensed in Enhancer EC at a ratio of 1:2 (μg of total RNA and/or DNA : μl of Enhancer), and formulated with TransMessenger at a ratio of 1:4 (μg of RNA and /or DNA: μl of TransMessenger) and then incubated with cells. For transfections of HepG2 cells, medium was changed after an overnight incubation with siRNA. For transfections of SCRH, cells were incubated with siRNA for 4 hr and then were overlaid with collagen. siRNA delivery into hepatocytes was more efficient before overlay of the top collagen layer. The effect of transfection was examined 48 hr later.
(§3) Cells were harvested 48 hr post transfection and lysed in 1% SDS, 1 mM EDTA plus COMPLETE™ protease inhibitor cocktail (Roche Diagnostics, Mannheim, Germany). The protein concentration of the clear cell lysate was determined with the BCA Protein Assay Reagent Kit (Pierce Biotech, Inc. Rockford, Ill.). […] of total protein per lane was resolved by electrophoresis on NuPAGE 4-12% Bis-Tris Gel (Invitrogen Life Technology, Carlsbad, Calif. USA) and were transferred onto polyvinylidone difluoride membranes. The following antibodies were used to probe the membranes: anti-Mrp2 (M2111-6, Alexis Biochemicals, San Diego, Calif. USA); anti-Mrp3 (kind gift from Dr. Yuichi Sugiyama); anti-Radixin (Chemicon International, Inc. Temecula, Calif. USA), anti-β-actin (MAB1501, Chemicon).

SCRH = assay: Lactate dehydrogenase activity assay of culture medium of SCRH; type: cell-based, rat; settings: after three days in culture, mean±SEM
Description: Prior to the functional studies, cell culture medium was assayed for lactate dehydrogenase activity, an intracellular enzyme whose leakage into extracellular medium is inversely related to cell viability. Lactate dehydrogenase activity was assayed with kit 500-C (Sigma Diagnostics, St. Louis, Mo. USA) utilizing lactate dehydrogenase-catalyzed reduction of pyruvate to lactate, subsequent conjugation of remaining pyruvate with 2,4-dinitrophenylhydrazine, and spectrophotometric detection (λ=500 nm) of the pyruvate-2,4-dinitrophenylhydrazone conjugate at alkaline pH (Cabaud and Wroblewski, Am. J. Clin. Pathol. 30:234-236,1958).

Mrp3 [1] = molecular target: T1, Mrp3 (Rattus norvegicus, UniProt O88563); assay: Assessment of Mrp3 function with CDF disposition in siMrp3-treated SCRH (30 min washout); type: cell-based
T1 construct: endogenous in cells; host or cells: sandwich-cultured primary hepatocytes of male Wistar rats
T1 sequence (O88563 whole entry): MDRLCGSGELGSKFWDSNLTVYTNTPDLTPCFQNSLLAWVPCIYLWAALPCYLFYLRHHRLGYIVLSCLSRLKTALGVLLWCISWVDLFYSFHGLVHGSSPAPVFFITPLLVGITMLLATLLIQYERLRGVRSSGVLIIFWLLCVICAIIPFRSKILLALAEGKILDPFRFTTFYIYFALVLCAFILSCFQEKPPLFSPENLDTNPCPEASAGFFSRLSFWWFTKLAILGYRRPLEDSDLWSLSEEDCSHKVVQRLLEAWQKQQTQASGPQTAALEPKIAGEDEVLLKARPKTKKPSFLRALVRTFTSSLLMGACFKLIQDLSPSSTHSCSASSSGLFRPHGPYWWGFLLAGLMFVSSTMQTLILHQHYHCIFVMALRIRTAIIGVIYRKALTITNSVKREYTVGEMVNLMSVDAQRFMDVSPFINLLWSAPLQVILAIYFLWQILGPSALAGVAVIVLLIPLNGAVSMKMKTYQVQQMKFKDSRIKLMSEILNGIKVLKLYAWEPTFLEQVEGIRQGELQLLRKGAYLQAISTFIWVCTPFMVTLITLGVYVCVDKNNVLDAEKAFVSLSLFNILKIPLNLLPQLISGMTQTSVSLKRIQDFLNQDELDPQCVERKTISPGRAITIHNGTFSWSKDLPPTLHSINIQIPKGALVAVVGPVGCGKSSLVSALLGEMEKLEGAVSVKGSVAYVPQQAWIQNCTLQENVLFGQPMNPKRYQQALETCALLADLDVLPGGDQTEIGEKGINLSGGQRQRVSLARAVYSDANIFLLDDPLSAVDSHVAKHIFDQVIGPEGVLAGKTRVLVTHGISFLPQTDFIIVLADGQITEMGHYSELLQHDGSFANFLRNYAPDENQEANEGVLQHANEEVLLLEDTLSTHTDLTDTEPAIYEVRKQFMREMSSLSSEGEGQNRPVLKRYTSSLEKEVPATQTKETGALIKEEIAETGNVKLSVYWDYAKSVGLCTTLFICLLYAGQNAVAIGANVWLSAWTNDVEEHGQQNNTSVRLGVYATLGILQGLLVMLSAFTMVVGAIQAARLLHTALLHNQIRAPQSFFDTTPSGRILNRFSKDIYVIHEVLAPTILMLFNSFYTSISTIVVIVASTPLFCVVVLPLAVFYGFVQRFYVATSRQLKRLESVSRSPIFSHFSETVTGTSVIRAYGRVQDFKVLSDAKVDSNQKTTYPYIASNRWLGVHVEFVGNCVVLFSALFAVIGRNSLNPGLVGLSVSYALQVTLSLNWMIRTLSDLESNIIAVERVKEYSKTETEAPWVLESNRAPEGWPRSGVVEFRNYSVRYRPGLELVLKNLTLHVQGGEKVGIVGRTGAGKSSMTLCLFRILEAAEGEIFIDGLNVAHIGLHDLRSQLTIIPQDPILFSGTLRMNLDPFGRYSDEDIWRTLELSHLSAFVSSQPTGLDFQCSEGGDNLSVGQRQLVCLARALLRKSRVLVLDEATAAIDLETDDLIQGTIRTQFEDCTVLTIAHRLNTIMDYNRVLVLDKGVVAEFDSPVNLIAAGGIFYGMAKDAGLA
Description: Cells were rinsed twice with Hanks' balanced salt solution (HBSS, 2 mL, 37° C.) and incubated (10 min, 1.5 mL, 37° C.) with 2 μM CDF diacetate (Molecular Probes, Eugene, Oreg. USA), and were then rinsed twice with cold HBSS (2 mL, 4° C.). Cell images were taken with a Axiovert 100TV inverted microscope. Accumulation of CDF in cells+bile canaliculi and cells only was assessed in SCRH pre-incubated (10 min, 2 mL, 37° C.) with standard HBSS and Ca^2+-free HBSS, respectively (Liu et al., J. Pharmacol. Exp. Ther. 289:1592-1599, 1999). SCRH were subsequently incubated with CDF diacetate (10 min, 2 mL, 37° C.). In siMrp2-treated SCRH, cells were then rinsed four times with cold HBSS (2 mL, 4° C.) and lysed (1 mL, 0.5% TritonX-100 in phosphate-buffered saline). In siMrp3-treated SCRH, following incubation with CDF diacetate, cells were rinsed four times with warm HBSS (2 mL, 37° C.) and were incubated with HBSS (30 min, HBSS changed every 10 min, 2 mL, 37° C.) to allow time for intracellular CDF to undergo appreciable basolateral excretion prior to rinsing the SCRH four times with cold HBSS and lysing the cells (as above). CDF fluorescence in lysate was quantified with fluorescence spectrophotometry (λex=485 nm, λem=[…]); protein concentration was determined with the BCA method kit (as above).

Mrp3 [2] = assay: Immunoblot analysis of Mrp3 expression in siRNA-treated SCRH; type: cell-based, rat; settings: vs siFL-transfected and non-transfected cells
Description: as §1, §2, §3

## siMrp3: siRNA targeting rat Mrp3, GGUCCAAGGACCUGCCUCCCA (SEQ ID NO: 6), nucleotides 1950-1970 of Mrp3 cDNA (listed as RNA, chemistry not given here)
Mrp2
  expression of Mrp2 (in words): no change in expression of Mrp2
SCRH
  lactate dehydrogenase activity: 87±3 % non-transfected control SCRH
Mrp3 [1]; transfected SCRH, after 30 min washout, vs control
  increase of biliary excretion index of CDF: ~60%
Mrp3 [1]; transfected SCRH, after 30 min washout, control 36.2%
  biliary excretion index of CDF: 57.5%
Mrp3 [1]; transfected SCRH, after 30 min washout, non-transfected control 15.6±4.0
  CDF accumulation in cells only: 13.7±2.2 pmol/mg protein/10 min
Mrp3 [1]; transfected SCRH, after 30 min washout, non-transfected control 24.4±4.3
  CDF accumulation in cells+bile canaliculi: 32.3±2.5 pmol/mg protein/10 min
Mrp3 [1]; vs siFL-transfected or non-transfected cells
  CDF fluorescence in canalicular networks (in words): more intense
Mrp3 [2]
  Mrp3 protein expression (in words): a decrease in Mrp3 protein expression
